Results on 28 molecules are retold here after US7579504B2, “ABCA1 elevating compounds” (Gilead Sciences, Inc., priority 2005, dated 2009).

The test system of the test is ABCA1 mRNA. The test can be described thus: ABCA1 mRNA induction in THP-1 cells, QuantiGene branched DNA assay. In kind it is cell-based. Conditions: Homo sapiens, 18-20 hours, read-out: ABCA1 Induction Fold Increase over DMSO Vehicle. As to the method:
Modulation of expression of ABCA1 mRNA levels by the compounds of the invention was determined in the following assays.
Induction of ABC1 in THP-1 cells, was measured using QuantiGene® branched DNA assay as per manufacturer's instructions. Cultures of THP-1 were grown to subconfluence in DMEM/10% FBS before replacement with DMEM/BSA and 10 and 3 μM concentrations of the test compounds in DMSO for 18-20 hours. After treatment of cells with compounds, the cells were lysed with lysis buffer at 37° C. for 20 minutes. The cell lysate and ABCA1 specific probe (Genospectra, Inc., Fremont, Calif.) mix were added to the 96 well capture plate and hybridized at 53° C. for 16-18 hours. The signal was amplified using the amplifier and label probes provided with the QuantiGene® assay followed by addition of a luminescent alkaline phosphatase substrate, dioxitane. Luminescence was quantified in Victor V plate reader.
Step 1 • Cells are lysed to release mRNA in the presence of target probes. Target mRNA from lysed cells was then captured by hybridization and transferred to the Capture Plate.
Step 2 • Signal amplification was performed by hybridization of the bDNA Amplifier and Label Probe.
Step 3 • Addition of chemiluminescence substrate yielded a QuantiGene® signal proportional to the amount of mRNA present in the sample.
Table 1 presents the relative fold increase in ABCA1 expression over DMSO for compounds of the invention when tested at a concentration of 10 μM.

Turning to `CC(=O)Nc1ccc(S(=O)(=O)N(Cc2ccccc2)CC2CCC(C(=O)NCc3ccc(C)cc3)CC2)cc1` (stereo not shown) [Compound 8, N-[4-({[(4-{N-[(4-methylphenyl)methyl]carbamoyl}cyclohexyl)methyl]benzylamino}sulfonyl)phenyl]acetamide], the fold induction at 10 µM amounted to 3.1.

Regarding `Cc1ccc(CNC(=O)C2CCC(CN(Cc3ccccc3)S(=O)(=O)c3cccc(F)c3)CC2)cc1` (stereo not shown) [Compound 31, [4-({[(3-fluorophenyl)sulfonyl]benzylamino}methyl)cyclohexyl]-N-[(4-methylphenyl)methyl]carboxamide], the fold induction at 10 µM was determined as 6.7.

Regarding `Cc1ccc(CNC(=O)C2CCC(CN(Cc3ccccc3)S(=O)(=O)c3cc(F)ccc3C)CC2)cc1` (stereo not shown) [Compound 26, [4-({[(5-fluoro-2-methylphenyl)sulfonyl]benzylamino}methyl)cyclohexyl]-N-[(4-methylphenyl)methyl]carboxamide], the fold induction at 10 µM came to 4.3.

For `Cc1ccc(CNC(=O)C2CCC(CN(Cc3ccccc3)S(=O)(=O)c3ccc(Cl)cc3F)CC2)cc1` (stereo not shown) [Compound 11, [4-({[(4-chloro-2-fluorophenyl)sulfonyl]benzylamino}methyl)cyclohexyl]-N-[(4-methylphenyl)methyl]carboxamide], the fold induction at 10 µM was determined as 1.9.

Consider `Cc1ccc(CNC(=O)C2CCC(CN(Cc3ccccc3)S(=O)(=O)c3ccc(Cl)c(Cl)c3)CC2)cc1` (stereo not shown) [Compound 42, [4-({[(3,4-dichlorophenyl)sulfonyl]benzylamino}methyl)cyclohexyl]-N-[(4-methylphenyl)methyl]carboxamide], for which the fold induction at 10 µM is 2.6.

With `Cc1ccc(CNC(=O)C2CCC(CN(Cc3ccccc3)S(=O)(=O)c3c(F)c(F)c(F)c(F)c3F)CC2)cc1` (stereo not shown) [Compound 37, N-[(4-methylphenyl)methyl][4-({[(2,3,4,5,6-pentafluorophenyl)sulfonyl]benzylamino}methyl)cyclohexyl]carboxamide], the fold induction at 10 µM was determined as 3.

In the case of `Cc1ccc(CNC(=O)[C@H]2CC[C@H](CN(Cc3ccccc3C)S(=O)(=O)c3ccccc3)CC2)cc1` [Compound 1, N-[(4-methylphenyl)methyl][4-({[(2-methylphenyl)methyl](phenylsulfonyl)amino}methyl)cyclohexyl]carboxamide], the fold induction at 10 µM was determined as 4.2.

As for `Cc1ccc(CNC(=O)C2CCC(CN(Cc3ccc(F)cc3)S(=O)(=O)c3ccccc3)CC2)cc1` (stereo not shown) [Compound 3, [4-({[(4-fluorophenyl)methyl](phenylsulfonyl)amino}methyl)cyclohexyl]-N-[(4-methylphenyl)methyl]carboxamide], the fold induction at 10 µM worked out at 4.8.

Regarding `Cc1ccc(CNC(=O)C2CCC(CN(Cc3ccccc3)S(=O)(=O)c3ccccc3C(F)(F)F)CC2)cc1` (stereo not shown) [Compound 35, N-[(4-methylphenyl)methyl]{4-[(benzyl{[2-(trifluoromethyl)phenyl]sulfonyl}amino)methyl]cyclohexyl}carboxamide], the fold induction at 10 µM was 6.1.

As for `Cc1ccc(CNC(=O)C2CCC(CN(Cc3ccccc3)S(=O)(=O)c3ccccc3F)CC2)cc1` (stereo not shown) [Compound 21, [4-({[(2-fluorophenyl)sulfonyl]benzylamino}methyl)cyclohexyl]-N-[(4-methylphenyl)methyl]carboxamide], the fold induction at 10 µM stood at 4.4.

`Cc1ccc(CNC(=O)C2CCC(CN(Cc3cccc(F)c3F)S(=O)(=O)c3ccccc3)CC2)cc1` (stereo not shown) [Compound 2, [4-({[(2,3-difluorophenyl)methyl](phenylsulfonyl)amino}methyl)cyclohexyl]-N-[(4-methylphenyl)methyl]carboxamide]: the fold induction at 10 µM is 6.3.

Turning to `Cc1ccc(CNC(=O)C2CCC(CN(Cc3ccccc3)S(=O)(=O)c3cc(C)cc(C)c3)CC2)cc1` (stereo not shown) [Compound 23, [4-({[(3,5-dimethylphenyl)sulfonyl]benzylamino}methyl)cyclohexyl]-N-[(4-methylphenyl)methyl]carboxamide], the fold induction at 10 µM amounted to 4.1.

For the molecule `Cc1ccc(CNC(=O)C2CCC(CN(Cc3ccccc3)S(=O)(=O)c3ccc(F)c(F)c3)CC2)cc1` (stereo not shown) [Compound 12, [4-({[(3,4-difluorophenyl)sulfonyl]benzylamino}methyl)cyclohexyl]-N-[(4-methylphenyl)methyl]carboxamide], the fold induction at 10 µM is 2.6.

For `Cc1ccc(CNC(=O)C2CCC(CN([C@H](C)c3ccccc3)S(=O)(=O)c3ccccc3)CC2)cc1` (stereo partly drawn) [Compound 5, (4-{[((1R)-1-phenylethyl)(phenylsulfonyl)amino]methyl}cyclohexyl)-N-[(4-methylphenyl)methyl]carboxamide], the fold induction at 10 µM was found to be 6.4.

Take `Cc1ccc(CNC(=O)C2CCC(CN(Cc3ccccc3)S(=O)(=O)c3c(C)nn(C)c3C)CC2)cc1` (stereo not shown) [Compound 47, N-[(4-methylphenyl)methyl][4-({benzyl[(1,3,5-trimethylpyrazol-4-yl)sulfonyl]amino}methyl)cyclohexyl]carboxamide]: the fold induction at 10 µM turned out to be 3.5.

Consider `Cc1ccc(CNC(=O)C2CCC(CN(Cc3ccccc3)S(=O)(=O)c3ccccc3C)CC2)cc1` (stereo not shown) [Compound 9, N-[(4-methylphenyl)methyl][4-({[(2-methylphenyl)sulfonyl]benzylamino}methyl)cyclohexyl]carboxamide], for which the fold induction at 10 µM was 4.9.

As for `Cc1ccc(CNC(=O)C2CCC(CN(Cc3ccccc3)S(=O)(=O)c3cc(C(F)(F)F)cc(C(F)(F)F)c3)CC2)cc1` (stereo not shown) [Compound 24, {4-[({[3,5-bis(trifluoromethyl)phenyl]sulfonyl}benzylamino)methyl]cyclohexyl}-N-[(4-methylphenyl)methyl]carboxamide], the fold induction at 10 µM came out at 0.9.

For the molecule `Cc1ccc(CNC(=O)C2CCC(CN(Cc3ccccc3)S(=O)(=O)c3ccccc3Cl)CC2)cc1` (stereo not shown) [Compound 22, [4-({[(2-chlorophenyl)sulfonyl]benzylamino}methyl)cyclohexyl]-N-[(4-methylphenyl)methyl]carboxamide], the fold induction at 10 µM was 4.1.

As for `Cc1ccc(CNC(=O)C2CCC(CN(Cc3ccccc3)S(=O)(=O)c3cc(F)cc(F)c3)CC2)cc1` (stereo not shown) [Compound 17, [4-({[(3,5-difluorophenyl)sulfonyl]benzylamino}methyl)cyclohexyl]-N-[(4-methylphenyl)methyl]carboxamide], the fold induction at 10 µM came out at 4.5.

`Cc1ccc(CNC(=O)C2CCC(CN(Cc3ccccc3)S(=O)(=O)c3cccc(Cl)c3F)CC2)cc1` (stereo not shown) [Compound 46, [4-({[(3-chloro-2-fluorophenyl)sulfonyl]benzylamino}methyl)cyclohexyl]-N-[(4-methylphenyl)methyl]carboxamide]: the fold induction at 10 µM is 4.5.

With `Cc1ccc(CNC(=O)C2CCC(CN(Cc3ccccc3)S(=O)(=O)c3ccc(C(C)(C)C)cc3)CC2)cc1` (stereo not shown) [Compound 13, {4-[({[4-(tert-butyl)phenyl]sulfonyl}benzylamino)methyl]cyclohexyl}-N-[(4-methylphenyl)methyl]carboxamide], the fold induction at 10 µM amounted to 2.7.

Take `Cc1ccc(CNC(=O)C2CCC(CN(Cc3ccccc3)S(=O)(=O)c3cccs3)CC2)cc1` (stereo not shown) [Compound 15, N-[(4-methylphenyl)methyl](4-{[benzyl(2-thienylsulfonyl)amino]methyl}cyclohexyl)carboxamide]: the fold induction at 10 µM is 4.3.

As for `Cc1ccc(CNC(=O)C2CCC(CN(Cc3ccccc3)S(=O)(=O)c3c(C)cc(C)cc3C)CC2)cc1` (stereo not shown) [Compound 34, N-[(4-methylphenyl)methyl][4-({benzyl[(2,4,6-trimethylphenyl)sulfonyl]amino}methyl)cyclohexyl]carboxamide], the fold induction at 10 µM is 2.1.

Regarding `Cc1ccc(CNC(=O)C2CCC(CN(Cc3ccccc3)S(=O)(=O)c3ccc(C)c(F)c3)CC2)cc1` (stereo not shown) [Compound 39, [4-({[(3-fluoro-4-methylphenyl)sulfonyl]benzylamino}methyl)cyclohexyl]-N-[(4-methylphenyl)methyl]carboxamide], the fold induction at 10 µM came out at 4.

With `Cc1ccc(CNC(=O)C2CCC(CN(Cc3ccccc3)S(=O)(=O)c3ccc(F)cc3C)CC2)cc1` (stereo not shown) [Compound 33, [4-({[(4-fluoro-2-methylphenyl)sulfonyl]benzylamino}methyl)cyclohexyl]-N-[(4-methylphenyl)methyl]carboxamide], the fold induction at 10 µM was 4.1.

On to `Cc1ccc(CNC(=O)C2CCC(CN(Cc3ccccc3)S(=O)(=O)c3c(F)cccc3F)CC2)cc1` (stereo not shown) [Compound 29, [4-({[(2,6-difluorophenyl)sulfonyl]benzylamino}methyl)cyclohexyl]-N-[(4-methylphenyl)methyl]carboxamide], for which the fold induction at 10 µM was 6.9.

As to `Cc1ccc(CNC(=O)C2CCC(CN(Cc3ccccc3)S(=O)(=O)c3cc(Cl)cc(Cl)c3)CC2)cc1` (stereo not shown) [Compound 32, [4-({[(3,5-dichlorophenyl)sulfonyl]benzylamino}methyl)cyclohexyl]-N-[(4-methylphenyl)methyl]carboxamide], the fold induction at 10 µM was found to be 4.

Take `COc1ccc(S(=O)(=O)N(Cc2ccccc2)CC2CCC(C(=O)NCc3ccc(C)cc3)CC2)cc1` (stereo not shown) [Compound 45, [4-({[(4-methoxyphenyl)sulfonyl]benzylamino}methyl)cyclohexyl]-N-[(4-methylphenyl)methyl]carboxamide]: the fold induction at 10 µM was found to be 4.3.
